The subject of experiment [1] is gemcitabine-induced thrombocytopenia. In words: Effects of plinabulin on hematology parameters (platelet counts) following gemcitabine administration in the rat. It is filed as in vivo. How it is done: The effects of plinabulin on the hematology parameters following changes induced by gemcitabine administration in the rat were evaluated. The vehicle was prepared using 7.11% Tween 80 (v/v): 25.5% Propylene glycol (v/v): 67.4% D5W (v/v). D5W is 5% dextrose in water for injection.
Plinabulin or Pegfilgrastim were first dissolved in the Tween 80-PG mixture and then diluted with D5W. Test item was dissolved in Tween 80-PG mixture on the day before and stored at RF. D5W was added on the day of dosing to complete the formulation.
Animals were randomized based on body weight and/or absolute neutrophil counts and assigned to groups. Before the initiation of dosing, any assigned animals considered unsuitable for use in the study were replaced by alternate animals obtained from the same shipment and maintained under the same environmental conditions. Each animal was uniquely identified using indelible ink. A minimum acclimation period of 5 days was allowed between animal receipt and the start of treatment in order to accustom the animals to the laboratory environment.
For the lab evaluation, the animal blood was collected by jugular venipuncture. Samples (0.3 mL) were collected in EDTA tubes. Additional blood samples may be obtained (e.g., due to clotting of non-serum samples) if permissible sampling frequency and blood volume are not exceeded. After collection, samples were transferred to Clinical Laboratories for hematology analysis using the Advia and results entered into the Provantis® system.
Administration of Inducing Agent
1. Gemcitabine; Groups 1, 3 and 4
Dosing regimen: Single dosing on Day 1
Intravenously (IV bolus) over ˜1 minute at a dose volume of 5 mL/kg.
Group 2 received Vehicle.
2. Pegfilgrastim; Groups 2 and 4
Dosing regimen: Single dosing on Day 2, 24 hours after Gemcitabine
Route of administration: Subcutaneous (SC) injection.
Dose volume: 10 mL/kg, based on the most recent body weight measurement
Dosing regimen: Single dosing on Day 1, 1 hr after Gemcitabine
Route of administration: Intra-peritoneal (IP) injection.
Group 1 received Vehicle.
The dosing time points for groups 1 to 4 include days −3, 1, 2, 3, 4, 5, 6, 7, 8, 9 and 10. Additional blood samples may be obtained (e.g., due to clotting of non-serum samples) if permissible sampling frequency and blood volume are not exceeded. After collection, samples will be transferred to Clinical Laboratories for hematology analysis using the Advia and results entered into the Provantis® system.

Experiment [2] has as its system thrombocytopenia in patients receiving docetaxel. In words: Phase 2/3 randomized study of plinabulin versus pegfilgrastim in patients with solid tumors receiving docetaxel myelosuppressive chemotherapy (platelet count, thrombocytopenia). The following applies: patients on docetaxel 75 mg/m^2, preliminary; for change of platelet count (percent) from day 1 to day 15: pegfilgrastim 6 mg vs plinabulin 20 mg/m^2, FIG. 2; for development of thrombocytopenia (percentage of patients at each grade): plinabulin 20 mg/m^2 vs pegfilgrastim 6 mg, FIG. 5. In kind it is in vivo, human. How it is done:
The effects of plinabulin on the thrombocytopenia is studied in comparison to pegfilgrastim. A phase 2/3, multicenter, randomized, double blind study is performed with plinabulin versus pegfilgrastim in patients with solid tumors receiving docetaxel myelosuppressive chemotherapy is evaluated. The patients are on study for approximately 5 months, including screening, on treatment, and follow-up. Study design: This is a multicenter, randomized study with an open label phase 2 portion and a double blind phase 3 portion. Approximately 190 patients are enrolled in this study. All patients receive docetaxel at a dose of 75 mg/m^2. In Phase 2, only patients with advanced or metastatic NSCLC after failing platinum-based therapy are enrolled. In Phase 3, patients with one of the following diagnosis are enrolled: advanced or metastatic breast cancer, who have failed<5 prior lines of chemotherapy; advanced or metastatic NSCLC who have previously received platinum-based therapy and have either disease progression, are intolerant of platinum-based therapy or, in the opinion of the investigator, would benefit from docetaxel chemotherapy; or hormone refractory (androgen independent) metastatic prostate cancer. The eligibility of all patients will be determined during a 28-day screening period. Phase 2 (Open Label): Approximately 40 patients with advanced or metastatic NSCLC are enrolled. Patients are randomly assigned with approximately 10 patients enrolled in each arm, with the arm designation and planned intervention as follows: Arm 1: Docetaxel (75 mg/m^2)+pegfilgrastim (6 mg) Arm 2: Docetaxel (75 mg/m^2)+plinabulin (20 mg/m^2) Arm 3: Docetaxel (75 mg/m^2)+plinabulin (10 mg/m^2) Arm 4: Docetaxel (75 mg/m^2)+plinabulin (5 mg/m^2) Once the study is temporarily closed to enrollment in phase 2, a PK/PD analysis is performed to determine the RP3D. The PK/PD analysis is done by an independent party at the time 40 patients in Phase 2 have completed at least Cycle 1. Treatments Administered: Both Phase 2 and Phase 3, Cycles 1 to 4, consist of docetaxel 75 mg/m^2 administered by intravenous (IV) infusion on Day 1 over 60 minutes (±5 minutes) every 21 days. In the phase 2 portion, on Day 1 of each cycle, 1.5 hours (±10 minutes) after the start time of docetaxel infusion (i.e., approximately 30 minutes after the end of docetaxel infusion), patients assigned to a plinabulin arm (arms 2-4) get a single intravenous infusion of plinabulin at their assigned dose over 30 minutes (±5 minutes). Thus, the wait time between end of docetaxel infusion and start of the plinabulin infusion is approximately 30 minutes. On Day 2 of each cycle, ≥24 hours after completing chemotherapy, patients assigned to pegfilgrastim (arm 1) receive a single dose of pegfilgrastim (6 mg) (subcutaneous injection). Laboratory test results (hematology and serum chemistry) are collected via a central laboratory. Safety laboratory tests are required prior to treatment on Day 1 of each cycle and can be collected by a local laboratory; however, all other scheduled blood samples as per the schedule assessments and procedure table must also be obtained for central laboratory assessment. Urinalysis is performed at screening only. CD34+ counts are established through a fluorescence-activated cell sorting (FACS) method. Duration of Treatment: Patients received treatment with study drug for up to 4 cycles in this study, a treatment cycle is 21 days; thereafter, patients may continue receiving docetaxel and pegfilgrastim at the Investigator's discretion. After completion of 4 cycles, patients completed a safety follow-up visit 30 days (±2 days) after the last dose of study drug. If, in the opinion of the investigator, the patient would benefit from more than 4 cycles of docetaxel and open label pegfilgrastim, then the fifth cycle would not start until completion of the safety follow-up visit (in this instance, the safety follow-up visit will be Cycle 4 Day 21).

Turning to `CC(C)(C)c1[nH]cnc1/C=c1\[nH]c(=O)/c(=C/c2ccccc2)[nH]c1=O` [plinabulin, Plinabulin], the “platelet counts versus gemcitabine alone group” value in experiment [1] (Days 8 and 9, gemcitabine and plinabulin group) was “statistically greater”. For the same molecule, the “effect on thrombocytopenia observed with gemcitabine alone” value in experiment [1] (gemcitabine 100 mg/kg IV + plinabulin 7.5 mg/kg IP, FIG. 1) is reported as “reduced the thrombocytopenia observed with gemcitabine alone”. Also, in experiment [1] (gemcitabine 100 mg/kg IV Day 1 + plinabulin 7.5 mg/kg IP 1 hr after, all sampling days, FIG. 1), the platelet counts is recorded as > 500 ×10^3 cells/μL. In experiment [1] (gemcitabine and plinabulin group), the “recovery from gemcitabine-induced thrombocytopenia versus gemcitabine alone” value was “more rapid”. The “percentage of patients with greater than 30% platelet decrease from baseline, compared with pegfilgrastim group” value in experiment [2] (cycles 1-4, plinabulin groups, FIG. 3) is “lower percentages”. Besides, in experiment [2], the “change of platelet count (percent) from day 1 to day 15” value is recorded as “more effective in maintaining the platelet count” and the “development of thrombocytopenia (percentage of patients at each grade)” value is “did not develop thrombocytopenia”. Also, in experiment [2] (plinabulin 5, 10 and 20 mg/m^2 vs pegfilgrastim 6 mg, FIG. 4), the “incidence of developing thrombocytopenia (percentage of patients at each grade)” value was “lower incidences of developing thrombocytopenia than the pegfilgrastim group”.

B1: pegfilgrastim (protein, chains of the INN, looked up)
chain: TPLGPASSLPQSFLLKCLEQVRKIQGDGAALQEKLCATYKLCHPEELVLLGHSLGIPWAPLSSCPSQALQLAGCLSQLHSGLFLYQGLLQALEGISPELGPTLDTLQLDVADFATTIWQQMEELGMAPALQPTQGAMPAFASAFQRRAGGVLVASHLQSFLEVSYRVLRHLAQP
modifications: PEG
notes: granulocyte-colony stimulating factor (G-CSF) drug used as comparator
Turning to B1, the “percentage of patients with greater than 30% platelet decrease from baseline” value in experiment [2] (cycles 1-4, FIG. 3) is given as ~85%. Further, in experiment [2], the “change of platelet count (percent) from day 1 to day 15” value is given as “greater than the plinabulin group” and the “development of thrombocytopenia (percentage of patients at each grade)” value was “some patients in the pegfilgrastim group developed thrombocytopenia”.

These data come from patent US11786523B2, “Composition and method for reducing thrombocytopenia” (BEYONDSPRING PHARMACEUTICALS, INC., priority 2018, dated 2023).
